From ChEMBL document CHEMBL2424622, “Development of amino-pyrimidine inhibitors of c-Jun N-terminal kinase (JNK): kinase profiling guided optimization of a 1,2,3-benzotriazole lead” (Bioorg Med Chem Lett, 2013)

Experiments:
[1] = target: Cyclin-dependent kinase 8 (Homo sapiens) (UniProt P49336); assay: Competitive binding affinity to CDK8 (unknown origin) at 10 uM in presence of ATP relative to control
[2] = target: T1, Non-receptor tyrosine-protein kinase TNK1 (Homo sapiens) (UniProt Q13470); assay: Competitive binding affinity to TNK1 (unknown origin) at 10 uM in presence of ATP relative to control
T1 sequence (whole entry): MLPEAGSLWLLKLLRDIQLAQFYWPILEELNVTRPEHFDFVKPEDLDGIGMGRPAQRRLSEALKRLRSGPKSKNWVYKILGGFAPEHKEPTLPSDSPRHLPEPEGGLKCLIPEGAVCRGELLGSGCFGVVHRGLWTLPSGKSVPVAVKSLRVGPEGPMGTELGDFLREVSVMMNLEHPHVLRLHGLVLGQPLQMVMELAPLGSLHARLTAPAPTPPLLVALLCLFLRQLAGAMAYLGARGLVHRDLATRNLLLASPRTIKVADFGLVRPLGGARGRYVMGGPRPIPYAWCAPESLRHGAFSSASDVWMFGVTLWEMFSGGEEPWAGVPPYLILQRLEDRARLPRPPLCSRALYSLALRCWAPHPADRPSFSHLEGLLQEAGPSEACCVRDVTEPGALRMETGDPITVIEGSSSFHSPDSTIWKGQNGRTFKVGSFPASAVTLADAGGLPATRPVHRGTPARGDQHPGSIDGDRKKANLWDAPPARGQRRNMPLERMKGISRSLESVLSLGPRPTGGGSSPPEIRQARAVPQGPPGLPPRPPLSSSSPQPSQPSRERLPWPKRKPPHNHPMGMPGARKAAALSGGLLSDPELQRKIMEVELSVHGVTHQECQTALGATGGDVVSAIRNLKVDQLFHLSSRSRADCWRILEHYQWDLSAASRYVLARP

[3] = target: SRSF protein kinase 1 (Homo sapiens) (UniProt Q96SB4); assay: Competitive binding affinity to SRPK1 (unknown origin) at 10 uM in presence of ATP relative to control
Sequence of SRSF protein kinase 1 (Homo sapiens) (Q96SB4 whole entry, the tested form may be a part): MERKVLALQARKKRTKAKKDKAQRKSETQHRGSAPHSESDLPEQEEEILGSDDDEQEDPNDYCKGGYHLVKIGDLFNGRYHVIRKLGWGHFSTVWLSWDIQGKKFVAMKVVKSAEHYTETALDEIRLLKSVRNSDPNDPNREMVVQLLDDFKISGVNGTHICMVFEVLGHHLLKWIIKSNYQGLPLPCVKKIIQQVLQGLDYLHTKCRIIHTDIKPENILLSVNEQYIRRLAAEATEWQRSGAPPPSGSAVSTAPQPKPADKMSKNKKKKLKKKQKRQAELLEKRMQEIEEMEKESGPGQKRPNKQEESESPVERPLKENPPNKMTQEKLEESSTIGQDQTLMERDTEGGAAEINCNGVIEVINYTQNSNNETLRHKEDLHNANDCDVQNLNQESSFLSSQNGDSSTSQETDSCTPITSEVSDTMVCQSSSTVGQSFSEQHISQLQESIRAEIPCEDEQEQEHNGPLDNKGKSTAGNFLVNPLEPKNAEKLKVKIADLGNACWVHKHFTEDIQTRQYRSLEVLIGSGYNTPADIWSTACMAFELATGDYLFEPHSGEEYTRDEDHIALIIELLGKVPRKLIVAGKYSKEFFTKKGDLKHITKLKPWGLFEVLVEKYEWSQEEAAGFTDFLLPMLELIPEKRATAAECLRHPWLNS

[4] = target: Ribosomal protein S6 kinase alpha-6 (Homo sapiens) (UniProt Q9UK32); assay: Competitive binding affinity to RPS6KA6 kinase domain 2 (unknown origin) at 10 uM in presence of ATP relative to control
Sequence of Ribosomal protein S6 kinase alpha-6 (Homo sapiens) (Q9UK32 whole entry, the tested form may be a part): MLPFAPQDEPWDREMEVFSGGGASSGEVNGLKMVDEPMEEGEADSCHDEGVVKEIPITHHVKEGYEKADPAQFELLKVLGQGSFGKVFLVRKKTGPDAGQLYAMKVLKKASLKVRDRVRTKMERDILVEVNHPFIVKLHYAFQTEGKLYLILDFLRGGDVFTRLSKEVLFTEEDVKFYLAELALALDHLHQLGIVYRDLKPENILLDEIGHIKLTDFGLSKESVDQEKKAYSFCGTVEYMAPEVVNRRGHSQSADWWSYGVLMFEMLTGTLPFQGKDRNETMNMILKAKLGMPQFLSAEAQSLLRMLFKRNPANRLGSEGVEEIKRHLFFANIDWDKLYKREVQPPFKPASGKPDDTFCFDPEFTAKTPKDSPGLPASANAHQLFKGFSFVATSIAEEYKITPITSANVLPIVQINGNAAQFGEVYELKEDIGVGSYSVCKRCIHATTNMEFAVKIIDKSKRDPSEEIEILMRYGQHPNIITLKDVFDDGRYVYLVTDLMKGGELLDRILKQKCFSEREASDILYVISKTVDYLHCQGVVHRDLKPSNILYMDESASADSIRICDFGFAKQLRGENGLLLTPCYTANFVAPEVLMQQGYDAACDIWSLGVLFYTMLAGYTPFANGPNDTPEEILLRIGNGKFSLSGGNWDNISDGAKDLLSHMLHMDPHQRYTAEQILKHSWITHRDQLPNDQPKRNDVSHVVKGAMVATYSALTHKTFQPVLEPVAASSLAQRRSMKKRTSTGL

[5] = target: T2, Serine/threonine-protein kinase D2 (Homo sapiens) (UniProt Q9BZL6); assay: Competitive binding affinity to PRKD2 (unknown origin) at 10 uM in presence of ATP relative to control
T2 sequence (whole entry): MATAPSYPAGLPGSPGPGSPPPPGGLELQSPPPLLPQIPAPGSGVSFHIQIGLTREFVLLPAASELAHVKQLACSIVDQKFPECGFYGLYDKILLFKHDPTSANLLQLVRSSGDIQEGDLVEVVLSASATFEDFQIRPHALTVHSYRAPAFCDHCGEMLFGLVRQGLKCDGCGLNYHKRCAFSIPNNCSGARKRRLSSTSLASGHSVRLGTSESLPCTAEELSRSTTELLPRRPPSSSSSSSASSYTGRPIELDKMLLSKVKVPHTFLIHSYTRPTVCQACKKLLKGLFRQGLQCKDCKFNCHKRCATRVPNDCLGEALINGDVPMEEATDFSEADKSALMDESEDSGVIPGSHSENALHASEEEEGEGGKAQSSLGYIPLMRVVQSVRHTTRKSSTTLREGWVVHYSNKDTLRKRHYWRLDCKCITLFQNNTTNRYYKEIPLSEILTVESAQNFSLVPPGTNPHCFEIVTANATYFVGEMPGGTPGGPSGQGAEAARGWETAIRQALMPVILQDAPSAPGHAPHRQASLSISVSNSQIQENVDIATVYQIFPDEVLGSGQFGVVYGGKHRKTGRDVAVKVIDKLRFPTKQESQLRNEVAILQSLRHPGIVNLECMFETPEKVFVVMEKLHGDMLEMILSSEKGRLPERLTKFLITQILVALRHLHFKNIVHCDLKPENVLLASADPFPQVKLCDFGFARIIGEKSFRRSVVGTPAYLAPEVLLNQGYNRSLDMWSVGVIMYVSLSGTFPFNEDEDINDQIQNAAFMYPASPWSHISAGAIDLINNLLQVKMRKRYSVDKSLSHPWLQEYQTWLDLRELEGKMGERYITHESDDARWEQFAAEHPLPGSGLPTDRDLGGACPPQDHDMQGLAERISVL

[6] = target: Epithelial discoidin domain-containing receptor 1 (Homo sapiens) (UniProt Q08345); assay: Competitive binding affinity to DDR1 (unknown origin) at 10 uM in presence of ATP relative to control
Sequence of Epithelial discoidin domain-containing receptor 1 (Homo sapiens) (Q08345 whole entry, the tested form may be a part): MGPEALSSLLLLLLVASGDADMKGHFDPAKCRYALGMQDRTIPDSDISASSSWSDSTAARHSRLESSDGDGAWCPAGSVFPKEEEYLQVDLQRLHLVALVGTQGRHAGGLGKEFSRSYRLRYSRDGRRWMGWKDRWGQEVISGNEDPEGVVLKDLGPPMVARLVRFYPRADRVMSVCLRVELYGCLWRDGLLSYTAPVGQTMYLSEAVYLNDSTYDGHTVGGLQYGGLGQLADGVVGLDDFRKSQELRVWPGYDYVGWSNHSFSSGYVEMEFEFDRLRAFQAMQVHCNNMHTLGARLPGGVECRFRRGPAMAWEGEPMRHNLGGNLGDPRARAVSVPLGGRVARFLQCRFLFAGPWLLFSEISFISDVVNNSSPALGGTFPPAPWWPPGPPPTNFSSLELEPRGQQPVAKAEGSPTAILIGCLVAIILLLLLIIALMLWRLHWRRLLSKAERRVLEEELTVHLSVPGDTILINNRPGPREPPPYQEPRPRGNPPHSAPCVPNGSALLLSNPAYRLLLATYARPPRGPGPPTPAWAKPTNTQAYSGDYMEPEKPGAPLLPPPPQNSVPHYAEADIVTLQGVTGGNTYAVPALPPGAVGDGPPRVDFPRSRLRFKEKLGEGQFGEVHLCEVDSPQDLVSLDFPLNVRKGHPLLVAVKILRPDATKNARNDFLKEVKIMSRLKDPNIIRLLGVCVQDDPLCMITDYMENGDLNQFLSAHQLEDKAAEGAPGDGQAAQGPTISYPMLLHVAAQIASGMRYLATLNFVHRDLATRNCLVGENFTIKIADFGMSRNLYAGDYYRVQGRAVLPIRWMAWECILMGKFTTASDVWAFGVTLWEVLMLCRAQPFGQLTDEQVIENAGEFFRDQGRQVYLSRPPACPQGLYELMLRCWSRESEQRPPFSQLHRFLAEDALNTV

[7] = target: T3, Serine/threonine-protein kinase D1 (Homo sapiens) (UniProt Q15139); assay: Competitive binding affinity to PRKD1 (unknown origin) at 10 uM in presence of ATP relative to control
T3 sequence (whole entry): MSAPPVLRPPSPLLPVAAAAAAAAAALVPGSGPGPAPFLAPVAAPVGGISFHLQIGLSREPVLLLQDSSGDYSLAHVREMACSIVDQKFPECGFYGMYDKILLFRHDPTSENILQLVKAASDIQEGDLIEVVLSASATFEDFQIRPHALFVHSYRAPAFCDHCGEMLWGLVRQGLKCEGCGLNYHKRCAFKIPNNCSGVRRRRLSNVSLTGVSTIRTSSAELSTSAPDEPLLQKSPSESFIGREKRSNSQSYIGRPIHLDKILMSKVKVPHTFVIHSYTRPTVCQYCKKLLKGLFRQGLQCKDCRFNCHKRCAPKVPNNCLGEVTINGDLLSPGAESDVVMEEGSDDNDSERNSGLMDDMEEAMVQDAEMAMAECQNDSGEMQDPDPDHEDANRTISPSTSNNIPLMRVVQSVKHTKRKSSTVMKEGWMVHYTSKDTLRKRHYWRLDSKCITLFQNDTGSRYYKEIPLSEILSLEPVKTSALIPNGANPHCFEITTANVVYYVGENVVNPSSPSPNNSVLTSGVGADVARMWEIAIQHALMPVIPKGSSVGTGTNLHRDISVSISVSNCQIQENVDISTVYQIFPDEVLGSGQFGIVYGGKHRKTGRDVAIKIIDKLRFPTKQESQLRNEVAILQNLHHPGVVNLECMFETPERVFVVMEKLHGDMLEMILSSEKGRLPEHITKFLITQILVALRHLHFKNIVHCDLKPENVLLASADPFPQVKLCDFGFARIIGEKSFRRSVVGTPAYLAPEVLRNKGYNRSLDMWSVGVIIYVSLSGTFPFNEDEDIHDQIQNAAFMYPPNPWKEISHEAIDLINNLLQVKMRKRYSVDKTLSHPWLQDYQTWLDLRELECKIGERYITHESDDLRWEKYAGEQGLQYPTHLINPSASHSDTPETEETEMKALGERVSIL

[8] = target: Ribosomal protein S6 kinase alpha-6 (Homo sapiens) (UniProt Q9UK32); assay: Competitive binding affinity to RPS6KA6 kinase domain 1 (unknown origin) at 10 uM in presence of ATP relative to control
[9] = test system: Mast/stem cell growth factor receptor Kit (Homo sapiens), P10721 [V559D,T670I]; assay: Competitive binding affinity to KIT V559D/T670I double mutant (unknown origin) at 10 uM in presence of ATP relative to control
Sequence of Mast/stem cell growth factor receptor Kit (Homo sapiens), P10721 [V559D,T670I] (P10721 whole entry V559D/T670I): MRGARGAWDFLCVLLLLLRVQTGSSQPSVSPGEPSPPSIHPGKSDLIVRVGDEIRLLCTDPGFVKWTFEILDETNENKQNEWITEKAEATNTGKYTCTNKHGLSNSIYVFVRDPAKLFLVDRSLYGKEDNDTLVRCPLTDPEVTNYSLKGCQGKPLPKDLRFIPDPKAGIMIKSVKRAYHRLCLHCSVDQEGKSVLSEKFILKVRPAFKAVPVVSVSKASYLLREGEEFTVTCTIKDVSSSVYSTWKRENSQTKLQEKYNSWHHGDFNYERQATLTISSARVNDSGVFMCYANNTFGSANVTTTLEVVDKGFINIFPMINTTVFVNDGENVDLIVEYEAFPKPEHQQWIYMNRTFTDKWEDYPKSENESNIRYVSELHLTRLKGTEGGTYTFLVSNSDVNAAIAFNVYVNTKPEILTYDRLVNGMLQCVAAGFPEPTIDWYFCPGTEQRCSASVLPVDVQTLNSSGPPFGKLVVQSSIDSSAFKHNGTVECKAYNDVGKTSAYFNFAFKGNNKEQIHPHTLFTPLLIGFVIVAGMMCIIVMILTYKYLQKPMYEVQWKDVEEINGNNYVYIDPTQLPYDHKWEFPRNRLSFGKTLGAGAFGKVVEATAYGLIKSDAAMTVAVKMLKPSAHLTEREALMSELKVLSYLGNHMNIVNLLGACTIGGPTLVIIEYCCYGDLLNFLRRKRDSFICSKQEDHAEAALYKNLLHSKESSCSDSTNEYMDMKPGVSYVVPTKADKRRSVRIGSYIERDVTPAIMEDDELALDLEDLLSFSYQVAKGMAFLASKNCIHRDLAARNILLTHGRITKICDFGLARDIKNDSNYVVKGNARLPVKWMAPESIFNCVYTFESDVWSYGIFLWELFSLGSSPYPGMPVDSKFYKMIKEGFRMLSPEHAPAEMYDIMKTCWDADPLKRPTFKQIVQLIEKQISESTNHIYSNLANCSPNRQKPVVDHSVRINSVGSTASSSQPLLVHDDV

Sequence of Cyclin-dependent kinase 8 (Homo sapiens) (P49336 whole entry): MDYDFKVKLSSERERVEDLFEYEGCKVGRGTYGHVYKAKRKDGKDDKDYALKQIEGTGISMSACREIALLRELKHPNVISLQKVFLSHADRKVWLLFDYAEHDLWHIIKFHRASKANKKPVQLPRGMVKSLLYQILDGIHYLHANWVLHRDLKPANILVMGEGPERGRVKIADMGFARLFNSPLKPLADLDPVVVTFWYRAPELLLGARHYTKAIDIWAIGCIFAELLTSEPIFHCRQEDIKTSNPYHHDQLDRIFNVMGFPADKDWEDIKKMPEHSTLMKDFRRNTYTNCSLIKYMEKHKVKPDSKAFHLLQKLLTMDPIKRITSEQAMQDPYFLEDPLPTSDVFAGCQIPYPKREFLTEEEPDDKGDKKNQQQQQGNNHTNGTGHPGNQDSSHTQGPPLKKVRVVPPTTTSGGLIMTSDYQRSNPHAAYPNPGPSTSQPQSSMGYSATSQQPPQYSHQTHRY

Row | Structure (SMILES) | inhibition [1] [%] | inhibition [2] [%] | inhibition [3] [%] | inhibition [4] [%] | inhibition [5] [%] | inhibition [6] [%] | inhibition [7] [%] | inhibition [8] [%] | inhibition [9] [%]
1 | O[C@H]1CC[C@H](Nc2nccc(-n3nnc4ccccc43)n2)CC1 | 82 | < 50 | < 50 | 100 | 98 | < 50 | 98 | < 50 | 74
2 | O[C@H]1CC[C@H](Nc2nccc(-n3ncc4ccccc43)n2)CC1 | < 50 | < 50 | < 50 | 100 | 91 | < 50 | 96 | < 50 | 80
3 | O[C@H]1CC[C@H](Nc2nccc(-c3n[nH]c4ccccc34)n2)CC1 | – | 81 | 100 | – | – | – | – | 79 | 96
4 | O[C@H]1CC[C@H](Nc2nccc(-n3ccc4ccccc43)n2)CC1 | < 50 | < 50 | < 50 | 84 | 88 | < 50 | 95 | < 50 | < 50
